Among the test systems are EKVX NSCLC; HOP-92 NSCLC; HT29 colon; IGROV1 ovarian; KM12 colon; NCI-H23 lung; NCI-H522 lung; OVCAR-3 ovarian; OVCAR-5 ovarian; U251 CNS.
Holding throughout (assay): DTP human tumour cell line panel, 48 h

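48-hour exposure; five concentrations; linearly interpolated endpoints. The concentration for 50% growth inhibition is given as GI50. Definition used: TGI = concentration required for complete inhibition of growth.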 Where only a bound is given, the exact number is not on record here.

What is called GI50 is the concentration that inhibits growth by half. Usually TGI stands for the concentration at which net growth stops. High values mean lower sensitivity of the cells, low ones greater sensitivity of the cells.

On to `CCc1cc(Cc2cc(CC)cc(C(C)(C)C)c2O)c(O)c(C(C)(C)C)c1`, for which the GI50 in the assay with EKVX NSCLC is 2240 nM; in the assay with HOP-92 NSCLC, 2250 nM; in the assay with HT29 colon, 2900 nM; with IGROV1 ovarian, 2530 nM; in the assay with KM12 colon, 2280 nM; in the assay with NCI-H23 lung it was 3330 nM. Further, the GI50 with NCI-H522 lung was 2380 nM; with OVCAR-3 ovarian, 2200 nM; with OVCAR-5 ovarian, 9690 nM; in the assay on U251 CNS it was 3130 nM. Moreover, the TGI was found to be 6.77 µM with EKVX NSCLC; 7.97 µM with HOP-92 NSCLC; 11.5 µM in the assay with HT29 colon; 8.05 µM with IGROV1 ovarian; 6.35 µM in the assay on KM12 colon; 12.5 µM in the assay with NCI-H23 lung. Besides, the TGI amounted to 8.29 µM in the assay with NCI-H522 lung, 5.33 µM in the assay with OVCAR-3 ovarian, 21.4 µM in the assay on OVCAR-5 ovarian and 11 µM in the assay with U251 CNS.

As to `COc1cc(-c2nc3cc(Cl)c(Cl)cc3[nH]2)ccc1OCC(=O)N=Nc1c(O)[nH]c2ccccc12`, the GI50 in the assay on EKVX NSCLC was 2020 nM; in the assay with HOP-92 NSCLC, 794 nM; with HT29 colon it was 352 nM; in the assay on IGROV1 ovarian it was 313 nM; in the assay with KM12 colon it was 1070 nM; in the assay with NCI-H23 lung, 287 nM. In addition, the GI50 in the assay on NCI-H522 lung is 301 nM; in the assay on OVCAR-3 ovarian, 409 nM; in the assay on OVCAR-5 ovarian, 840 nM; in the assay on U251 CNS, 244 nM. Further, the TGI stood at 21.7 µM with EKVX NSCLC; 2.42 µM with HOP-92 NSCLC; 4.72 µM with HT29 colon; 1.01 µM with IGROV1 ovarian; 3.19 µM with KM12 colon; 0.938 µM in the assay on NCI-H23 lung. Further, the TGI is 2.18 µM with NCI-H522 lung, 1.43 µM with OVCAR-3 ovarian, 2.45 µM in the assay with OVCAR-5 ovarian and 0.681 µM in the assay with U251 CNS.

Consider `CCOc1ccc(-n2cc(-c3ccc(N(C)C)cc3)[n+]3c2CCCCC3)cc1`, for which the GI50 with EKVX NSCLC is 244 nM; in the assay with HOP-92 NSCLC, 1140 nM; with HT29 colon, 609 nM; in the assay on IGROV1 ovarian, 923 nM; in the assay with KM12 colon, 168 nM; in the assay on NCI-H23 lung, 93.5 nM. The GI50 is 125 nM in the assay with NCI-H522 lung, 377 nM in the assay with OVCAR-3 ovarian, 3740 nM in the assay with OVCAR-5 ovarian and 312 nM in the assay with U251 CNS. For the same compound, the TGI in the assay with EKVX NSCLC is above 100 µM; with HOP-92 NSCLC, 6.43 µM; in the assay on HT29 colon it was above 24.7 µM; with IGROV1 ovarian, above 100 µM; in the assay on KM12 colon, 27.8 µM; with NCI-H23 lung, above 43 µM. In addition, the total growth inhibition concentration (TGI) with NCI-H522 lung is 3.91 µM; with OVCAR-3 ovarian it was 60.2 µM; with OVCAR-5 ovarian it was above 100 µM; with U251 CNS, above 100 µM.

Consider `O=C1/C=C/[C@@H](O)[C@@H]2C[C@@H](O)C[C@H]2/C=C/CCCCO1`, for which the GI50 was 519 nM in the assay with EKVX NSCLC; 368 nM in the assay with HOP-92 NSCLC; 338 nM in the assay with HT29 colon; 831 nM in the assay with IGROV1 ovarian; 225 nM with KM12 colon; 488 nM in the assay on NCI-H23 lung. Moreover, the GI50 is 1770 nM in the assay on NCI-H522 lung, 202 nM with OVCAR-3 ovarian, 682 nM in the assay with OVCAR-5 ovarian and 408 nM with U251 CNS. Moreover, the TGI with EKVX NSCLC was above 21.4 µM; in the assay on HOP-92 NSCLC, above 20.8 µM; with HT29 colon it was above 100 µM; in the assay on IGROV1 ovarian, 3.73 µM; in the assay on KM12 colon, 0.553 µM; in the assay on NCI-H23 lung, 63.1 µM. Besides, the concentration for total growth inhibition (TGI) is 5.63 µM with NCI-H522 lung, 0.468 µM in the assay on OVCAR-3 ovarian, above 61.7 µM in the assay with OVCAR-5 ovarian and above 100 µM in the assay with U251 CNS.

With `COC(=O)c1cccc(COc2ccc([N+](=O)[O-])cc2Cl)c1`, the TGI in the assay with EKVX NSCLC, in the assay with HOP-92 NSCLC, in the assay on HT29 colon, in the assay on IGROV1 ovarian, with KM12 colon and in the assay with NCI-H23 lung was above 100 µM in each case. In addition, the concentration for total growth inhibition (TGI) in the assay on NCI-H522 lung, in the assay with OVCAR-3 ovarian, with OVCAR-5 ovarian and with U251 CNS was above 100 µM throughout.

Turning to `COc1ccc2c(c1)[n+](=O)c(C(=O)C/C(=N\NC(=O)C[N+](C)(C)C)C(=O)Nc1cc(Cl)ccc1Cl)c(C)n2O`, the TGI with EKVX NSCLC, in the assay with HOP-92 NSCLC, in the assay on HT29 colon, in the assay with IGROV1 ovarian, with KM12 colon and with NCI-H23 lung was above 100 µM each time. In addition, the TGI in the assay with NCI-H522 lung, in the assay on OVCAR-3 ovarian, in the assay with OVCAR-5 ovarian and in the assay with U251 CNS was above 100 µM throughout.

Turning to `COc1ccccc1NC(=O)C(=O)C(C#N)CC(C)(C)C=O` (stereo not given), the TGI in the assay on EKVX NSCLC, in the assay with HOP-92 NSCLC, in the assay with HT29 colon, in the assay with IGROV1 ovarian, in the assay with KM12 colon and with NCI-H23 lung was above 100 µM throughout. The TGI in the assay on NCI-H522 lung, in the assay on OVCAR-3 ovarian, in the assay on OVCAR-5 ovarian and in the assay on U251 CNS was above 100 µM throughout.

As to `COc1cccc(/C=N/[N-]C(N)=O)c1[O-].[Cu+2].c1ccncc1`, the concentration for total growth inhibition (TGI) is 65.5 µM in the assay with EKVX NSCLC; 31.5 µM in the assay on HOP-92 NSCLC; 85.3 µM in the assay on HT29 colon; 49.9 µM in the assay on IGROV1 ovarian; 35.9 µM in the assay on KM12 colon; 45.8 µM with NCI-H23 lung. The TGI came to 34.6 µM in the assay on NCI-H522 lung, 28.8 µM in the assay on OVCAR-3 ovarian, 45.1 µM in the assay with OVCAR-5 ovarian and 32.2 µM in the assay on U251 CNS.

Consider `O=C(c1ccccc1)C(c1ccccc1)C1(O)C(=O)Nc2ccc(Br)cc21` (stereo not given), for which the TGI in the assay on EKVX NSCLC, in the assay on HOP-92 NSCLC, in the assay with HT29 colon, in the assay with IGROV1 ovarian, in the assay on KM12 colon and in the assay with NCI-H23 lung was above 100 µM in each case. Further, the TGI in the assay with NCI-H522 lung was 59.6 µM; in the assay with OVCAR-3 ovarian, above 100 µM; in the assay with OVCAR-5 ovarian it was above 100 µM; with U251 CNS, above 100 µM.

Consider `COc1cc(Nc2nccc(-c3cnn4ncccc34)n2)cc(OC)c1`, for which the GI50 in the assay with EKVX NSCLC is 113 nM; in the assay on HOP-92 NSCLC it was 31.7 nM; with HT29 colon, 84.2 nM; with IGROV1 ovarian, 91.6 nM; in the assay on KM12 colon, 34.9 nM; in the assay with NCI-H23 lung it was 57.9 nM. Also, the GI50 in the assay on NCI-H522 lung is 79 nM; with OVCAR-3 ovarian it was 50.9 nM; in the assay with OVCAR-5 ovarian, 75.9 nM; in the assay on U251 CNS, 75 nM. The total growth inhibition concentration (TGI) in the assay on EKVX NSCLC was 4.96 µM; with HOP-92 NSCLC it was 0.151 µM; in the assay with HT29 colon, 0.709 µM; in the assay on IGROV1 ovarian, above 23.9 µM; with KM12 colon, 0.272 µM; in the assay with NCI-H23 lung, 0.586 µM. Moreover, the TGI in the assay on NCI-H522 lung was determined as 0.619 µM; with OVCAR-3 ovarian, 0.822 µM; in the assay on OVCAR-5 ovarian, 1.9 µM; in the assay with U251 CNS, 2.46 µM.

These data come from PubChem BioAssay (NCI).
